pKi: −log10 of the molar value.
The compounds below were run against T1, human H3R (Homo sapiens, UniProt Q9Y5N1) (assay: Binding assay with 3H-(R)α-methylhistamine (competition binding, membranes of the human H3R-CHO cell line)). Details: competition with 3H(R)α-methylhistamine (1 nM), Ki calculated from IC50 by Cheng-Prusoff.
T1 construct: expressed in transfected cells; host or cells: CHO cells
Experimental: Binding Assay With ^3H—(R)α-methylhistamine
Saturation binding experiments were performed using HR3-CHO membranes prepared as described in Takahashi, K, Tokita, S., Kotani, H. (2003) J. Pharmacol. Exp. Therapeutics 307, 213-218.
An appropriate amount of membrane (60 to 80 μg protein/well) was incubated with increasing concentrations of ^3H(R)α-Methylhistamine di-hydrochloride (0.10 to 10 nM). Non specific binding was determined using a 200 fold excess of cold (R)α-Methylhistamine dihydrobromide (500 nM final concentration). The incubation was carried out at room temperature (in deep-well plates shaking for three hours). The final volume in each well was 250 μl. The incubation was followed by rapid filtration on GF/B filters (pre-soaked with 100 μl of 0.5% PEI in Tris 50 mM shaking at 200 rpm for two hours). The filtration was made using a cell-harvester and the filter plates were then washed five times with ice cold washing buffer containing 0.5 M NaCl. After harvesting, the plates were dried at 55° C. for 60 min, then we added scintillation fluid (Microscint 40, 40 microl in each well) and the amount of radioactivity on the filter was determined in Packard top-counter after shaking the plates for two hours at 200 rpm at room temperature.
Binding Buffer: 50 mM Tris-HCl pH 7.4 and 5 mM MgCl2×6H2O pH 7.4. Washing Buffer: 50 mM Tris-HCl pH 7.4 and 5 mM MgCl2×6H2O and 0.5 M NaCl pH 7.4.
Indirect measurement of affinity of H3R inverse agonists: twelve increasing concentrations (ranging from 10 μM to 0.3 nM) of the selected compounds were always tested in competition binding experiments using membrane of the human H3R—CHO cell line. An appropriate amount of protein, e.g. approximately 500 cpm binding of RAMH at Kd, were incubated for 1 hour at room temperature in 250 μl final volume in 96-well plates in presence of ^3H(R)α-methylhistamine (1 nM final concentration=Kd). Non-specific binding was determined using a 200 fold excess of cold (R)α-methylhistamine dihydrobromide.
All compounds were tested at a single concentration in duplicate. […] The concentration at which 50% inhibition of the radioligand ^3H(R)α-methylhistamine is obtained (the IC50) is determined from the linear regression of a plot of the logarithm of the concentration versus percent inhibition measured for the different concentrations. Ki's were calculated from IC50 based on Cheng-Prusoff equation (Cheng, Y, Prusoff, W H (1973) Biochem Pharmacol 22, 3099-3108): Ki=IC50/[1+D/Kd] wherein D is the concentration of the radioligand and Kd is the binding constant for the radioligand binding to the receptor under the conditions used in the competition experiment.

T1 sequence (Q9Y5N1 whole entry): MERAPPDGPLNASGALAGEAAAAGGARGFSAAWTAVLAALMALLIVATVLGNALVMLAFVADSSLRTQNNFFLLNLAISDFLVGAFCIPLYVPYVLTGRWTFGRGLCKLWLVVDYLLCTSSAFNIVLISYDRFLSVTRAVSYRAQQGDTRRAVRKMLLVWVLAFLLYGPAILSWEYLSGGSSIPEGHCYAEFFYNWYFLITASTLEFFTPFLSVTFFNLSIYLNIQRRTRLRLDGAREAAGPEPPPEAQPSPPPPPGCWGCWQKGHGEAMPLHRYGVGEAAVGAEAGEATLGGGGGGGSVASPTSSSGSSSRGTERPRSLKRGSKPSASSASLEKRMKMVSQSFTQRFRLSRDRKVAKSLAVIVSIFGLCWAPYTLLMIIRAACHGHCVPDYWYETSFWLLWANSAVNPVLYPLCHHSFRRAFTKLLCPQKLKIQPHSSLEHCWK

| pKi | Compound |
| --- | --- |
| 7.76 | O=C(c1cccc2c1ccn2Cc1ccc(F)cc1Cl)N1CCN(C2CCCC2)CC1 [Example 41, [1-(2-chloro-4-fluoro-benzyl)-1H-indol-4-yl]-(4-cyclopentyl-piperazin-1-yl)-methanone] |
| 7.03 | CC(C(=O)c1ccccc1)n1ccc2c(C(=O)N3CCN(C4CCCC4)CC3)cccc21 (stereo not shown) [Example 34, 2-[4-(4-Cyclopentyl-piperazine-1-carbonyl)-indol-1-yl]-1-phenyl-propan-1-one] |
| 7.07 | CC(C)N1CCN(C(=O)c2ccc3c(ccn3CC3CCCC3)c2)CC1 [Example 1, (1-Cyclopentylmethyl-1H-indol-5-yl)-(4-isopropyl-piperazin-1-yl)-methanone] |
| 7.28 | O=C(c1ccc2c(ccn2S(=O)(=O)c2cccs2)c1)N1CCN(C2CCCC2)CC1 [Example 20, (4-cyclopentyl-piperazin-1-yl)-[1-(thiophene-2-sulfonyl)-1H-indol-5-yl]-methanone] |

From patent publication US7557108B2, “(Indol-4-yl) or (indol-5-yl)-piperazinylmethanones” (Hoffmann-La Roche Inc., priority 2007, dated 2009)
